# Like-named read-outs stand apart in the source and are kept apart here.
# Tested on: CFU-GM, BFU-E and CFU-GEMM progenitor cells
# Settings: 80 μg/kg s.c.; for % CHG, BFU-E, methylcellulose culture / % CHG, CFU-GEMM, methylcellulose culture / % CHG, CFU-GM, methylcellulose culture / mean fold change compared to T 0, BFU-E, methylcellulose culture, MEAN / mean fold change compared to T 0, CFU-GEMM, methylcellulose culture, MEAN / mean fold change compared to T 0, CFU-GM, methylcellulose culture, MEAN: all five donors
smiles,measurement,setting,value
"c1cc(CN2CCCNCCNCCCNCC2)ccc1CN1CCCNCCNCCCNCC1 [AMD3100, 1,1′-[1,4-phenylene-bis(methylene)]-bis-1,4,8,11-tetraazacyclotetradecane]","fold change from T=0, progenitors CFU-GM, methylcellulose culture","P3, T = 24 h after injection",1.43 fold
same,"Absolute # of Progenitors per ML, BFU-E","P4, T = 1 h after injection",672 per ML
same,"Absolute # of Progenitors per ML, CFU-GEMM","P4, T = 1 h after injection",199 per ML
same,"Absolute # of Progenitors per ML, CFU-GM","P4, T = 1 h after injection",947 per ML
same,"fold change from T=0, progenitors BFU-E, methylcellulose culture","P4, T = 1 h after injection",1.46 fold
same,"fold change from T=0, progenitors CFU-GEMM, methylcellulose culture","P4, T = 1 h after injection",1.96 fold
same,"fold change from T=0, progenitors CFU-GM, methylcellulose culture","P4, T = 1 h after injection",6.87 fold
same,"Absolute # of Progenitors per ML, BFU-E","P4, T = 3 h after injection",1195 per ML
same,"Absolute # of Progenitors per ML, CFU-GEMM","P4, T = 3 h after injection",519 per ML
same,"Absolute # of Progenitors per ML, CFU-GM","P4, T = 3 h after injection",2857 per ML
same,"fold change from T=0, progenitors BFU-E, methylcellulose culture","P4, T = 3 h after injection",2.60 fold
same,"fold change from T=0, progenitors CFU-GEMM, methylcellulose culture","P4, T = 3 h after injection",5.14 fold
same,"fold change from T=0, progenitors CFU-GM, methylcellulose culture","P4, T = 3 h after injection",20.72 fold
same,"Absolute # of Progenitors per ML, BFU-E","P4, T = 6 h after injection",1533 per ML
same,"Absolute # of Progenitors per ML, CFU-GEMM","P4, T = 6 h after injection",920 per ML
same,"Absolute # of Progenitors per ML, CFU-GM","P4, T = 6 h after injection",3936 per ML
same,"fold change from T=0, progenitors BFU-E, methylcellulose culture","P4, T = 6 h after injection",3.34 fold
same,"fold change from T=0, progenitors CFU-GEMM, methylcellulose culture","P4, T = 6 h after injection",9.10 fold
same,"fold change from T=0, progenitors CFU-GM, methylcellulose culture","P4, T = 6 h after injection",28.54 fold
same,"Absolute # of Progenitors per ML, BFU-E","P4, T = 9 h after injection",1348 per ML
same,"Absolute # of Progenitors per ML, CFU-GEMM","P4, T = 9 h after injection",457 per ML
same,"Absolute # of Progenitors per ML, CFU-GM","P4, T = 9 h after injection",1942 per ML
same,"fold change from T=0, progenitors BFU-E, methylcellulose culture","P4, T = 9 h after injection",2.93 fold
same,"fold change from T=0, progenitors CFU-GEMM, methylcellulose culture","P4, T = 9 h after injection",4.52 fold
same,"fold change from T=0, progenitors CFU-GM, methylcellulose culture","P4, T = 9 h after injection",14.08 fold
same,"Absolute # of Progenitors per ML, BFU-E","P4, T = 24 h after injection",362 per ML
same,"Absolute # of Progenitors per ML, CFU-GEMM","P4, T = 24 h after injection",99 per ML
same,"Absolute # of Progenitors per ML, CFU-GM","P4, T = 24 h after injection",208 per ML
same,"fold change from T=0, progenitors BFU-E, methylcellulose culture","P4, T = 24 h after injection",0.79 fold
same,"fold change from T=0, progenitors CFU-GEMM, methylcellulose culture","P4, T = 24 h after injection",0.98 fold
same,"fold change from T=0, progenitors CFU-GM, methylcellulose culture","P4, T = 24 h after injection",1.51 fold
same,"Absolute # of Progenitors per ML, BFU-E","P5, T = 1 h after injection",730 per ML
same,"Absolute # of Progenitors per ML, CFU-GEMM","P5, T = 1 h after injection",169 per ML
same,"Absolute # of Progenitors per ML, CFU-GM","P5, T = 1 h after injection",481 per ML
same,"fold change from T=0, progenitors BFU-E, methylcellulose culture","P5, T = 1 h after injection",2.13 fold
same,"fold change from T=0, progenitors CFU-GEMM, methylcellulose culture","P5, T = 1 h after injection",3.07 fold
same,"fold change from T=0, progenitors CFU-GM, methylcellulose culture","P5, T = 1 h after injection",2.84 fold
same,"Absolute # of Progenitors per ML, BFU-E","P5, T = 3 h after injection",1288 per ML
same,"Absolute # of Progenitors per ML, CFU-GEMM","P5, T = 3 h after injection",244 per ML
same,"Absolute # of Progenitors per ML, CFU-GM","P5, T = 3 h after injection",1423 per ML
same,"fold change from T=0, progenitors BFU-E, methylcellulose culture","P5, T = 3 h after injection",3.75 fold
same,"fold change from T=0, progenitors CFU-GM, methylcellulose culture","P5, T = 3 h after injection",8.40 fold
same,"Absolute # of Progenitors per ML, BFU-E","P5, T = 6 h after injection",3208 per ML
same,"Absolute # of Progenitors per ML, CFU-GEMM","P5, T = 6 h after injection",987 per ML
same,"Absolute # of Progenitors per ML, CFU-GM","P5, T = 6 h after injection",3454 per ML
same,"fold change from T=0, progenitors BFU-E, methylcellulose culture","P5, T = 6 h after injection",9.35 fold
same,"fold change from T=0, progenitors CFU-GEMM, methylcellulose culture","P5, T = 6 h after injection",17.92 fold
same,"fold change from T=0, progenitors CFU-GM, methylcellulose culture","P5, T = 6 h after injection",20.39 fold
same,"Absolute # of Progenitors per ML, BFU-E","P5, T = 9 h after injection",1731 per ML
same,"Absolute # of Progenitors per ML, CFU-GEMM","P5, T = 9 h after injection",526 per ML
same,"Absolute # of Progenitors per ML, CFU-GM","P5, T = 9 h after injection",1710 per ML
same,"fold change from T=0, progenitors BFU-E, methylcellulose culture","P5, T = 9 h after injection",5.05 fold
same,"fold change from T=0, progenitors CFU-GEMM, methylcellulose culture","P5, T = 9 h after injection",9.55 fold
same,"fold change from T=0, progenitors CFU-GM, methylcellulose culture","P5, T = 9 h after injection",10.09 fold
same,"Absolute # of Progenitors per ML, BFU-E","P5, T = 24 h after injection",495 per ML
same,"Absolute # of Progenitors per ML, CFU-GEMM","P5, T = 24 h after injection",124 per ML
same,"Absolute # of Progenitors per ML, CFU-GM","P5, T = 24 h after injection",310 per ML
same,"fold change from T=0, progenitors BFU-E, methylcellulose culture","P5, T = 24 h after injection",1.44 fold
same,"fold change from T=0, progenitors CFU-GEMM, methylcellulose culture","P5, T = 24 h after injection",2.25 fold
same,"fold change from T=0, progenitors CFU-GM, methylcellulose culture","P5, T = 24 h after injection",1.83 fold
same,"% CHG, BFU-E, methylcellulose culture",T = 1 h after injection,98.9%
same,"% CHG, CFU-GEMM, methylcellulose culture",T = 1 h after injection,131.8%
same,"% CHG, CFU-GM, methylcellulose culture",T = 1 h after injection,376.7%
same,"mean fold change compared to T 0, BFU-E, methylcellulose culture, MEAN",T = 1 h after injection,1.99 fold
same,"mean fold change compared to T 0, CFU-GEMM, methylcellulose culture, MEAN",T = 1 h after injection,2.32 fold
same,"mean fold change compared to T 0, CFU-GM, methylcellulose culture, MEAN",T = 1 h after injection,4.77 fold
same,"% CHG, BFU-E, methylcellulose culture",T = 3 h after injection,221.3%
same,"% CHG, CFU-GEMM, methylcellulose culture",T = 3 h after injection,332.5%
same,"% CHG, CFU-GM, methylcellulose culture",T = 3 h after injection,1266.5%
same,"mean fold change compared to T 0, BFU-E, methylcellulose culture, MEAN",T = 3 h after injection,3.21 fold
same,"mean fold change compared to T 0, CFU-GEMM, methylcellulose culture, MEAN",T = 3 h after injection,4.33 fold
same,"mean fold change compared to T 0, CFU-GM, methylcellulose culture, MEAN",T = 3 h after injection,13.66 fold
same,"% CHG, BFU-E, methylcellulose culture",T = 6 h after injection,500.5%
same,"% CHG, CFU-GEMM, methylcellulose culture",T = 6 h after injection,907.2%
same,"% CHG, CFU-GM, methylcellulose culture",T = 6 h after injection,2070.6%
same,"mean fold change compared to T 0, BFU-E, methylcellulose culture, MEAN",T = 6 h after injection,6.01 fold
same,"mean fold change compared to T 0, CFU-GEMM, methylcellulose culture, MEAN",T = 6 h after injection,10.07 fold
same,"mean fold change compared to T 0, CFU-GM, methylcellulose culture, MEAN",T = 6 h after injection,21.71 fold
same,"% CHG, BFU-E, methylcellulose culture",T = 9 h after injection,334.4%
same,"% CHG, CFU-GEMM, methylcellulose culture",T = 9 h after injection,425.4%
same,"% CHG, CFU-GM, methylcellulose culture",T = 9 h after injection,947.3%
same,"mean fold change compared to T 0, BFU-E, methylcellulose culture, MEAN",T = 9 h after injection,4.34 fold
same,"mean fold change compared to T 0, CFU-GEMM, methylcellulose culture, MEAN",T = 9 h after injection,5.25 fold
same,"mean fold change compared to T 0, CFU-GM, methylcellulose culture, MEAN",T = 9 h after injection,10.47 fold
same,"% CHG, BFU-E, methylcellulose culture",T = 24 h after injection,26.3%
same,"% CHG, CFU-GEMM, methylcellulose culture",T = 24 h after injection,53.2%
same,"% CHG, CFU-GM, methylcellulose culture",T = 24 h after injection,55.5%
same,"mean fold change compared to T 0, BFU-E, methylcellulose culture, MEAN",T = 24 h after injection,1.26 fold
same,"mean fold change compared to T 0, CFU-GEMM, methylcellulose culture, MEAN",T = 24 h after injection,1.53 fold
same,"mean fold change compared to T 0, CFU-GM, methylcellulose culture, MEAN",T = 24 h after injection,1.56 fold

# From patent US10322111B2, “Chemokine receptor binding heterocyclic compounds with enhanced efficacy” (Genzyme Corporation, priority 2001, dated 2019)
